Tested on: PopD C6 M-833 resistant clone (PfSTART1 N309K)
Experiment: Growth inhibition assay (72 h, LDH activity)
Format: cell-based, Plasmodium falciparum
Method: The drug was then removed, and parasites were allowed to recover. Another cycle of drug treatment (3 μM M-833) was then resumed. The resistant lines were cloned out by limiting dilution (diluting the culture into a 96-well plate to achieve an average of ~0.3 parasites per well), prior to growth inhibition assays and genomic DNA (gDNA) extraction (DNeasy Blood and Tissue kit (Qiagen)[18].
Parasite growth assays with inhibitory compounds were performed as per[11] and are fully described in the Supplementary Information.
Molecular biology and transfection of P. falciparum: CRISPR method.
The full 5’ homology region of pfstart1 (either WT, N309K or N330K) was amplified from pPfSTART1-HA-2A-Neo-glmS with the same 5’ BglII primer and a new 3’ primer that replaced with PstI with SpeI and introduced a stop codon. The PCR product was then digested with BglII and SpeI and inserted into similarly digested p1.2 parasite vector2. The p1.2 vector had previously been inserted with a homology region amplified from the 3’ end of the pfstart1 gene (3’HB) to form a second homology block for double recombination. The primers used to amplify 3’HB are listed primers listed in […]
60 μg of p1.2-PfSTART1(WT/N309K/N330K) plasmid was linearised with KasI, precipitated in 3 M sodium acetate and ethanol (70% final concentration) overnight at -20°C. The DNA pellet was washed in cold 70% ethanol and resuspended in cytomix 3.
50 μ M of crRNA ( Table S 2) and 50 μM of tracRNA (Integrated DNA Technologies) were allowed to form a duplex (5 min at 95°C), and Cas9 enzyme (Integrated DNA Technologies) was added, and incubated for 20 min at room temperature 4. This crRNA -tracRNA -Cas9 mix was added to each DNA preparation and transfected to 3D7 ring parasites using the Bio -Rad Gene Pulser at 310 V and 950 μF.
Parasites containing the transfected DNA were selected using 2.5 nM WR99210 (Jacobus). Parasites lines were cloned using limiting dilution. Correct integration was tested by PCR (using primer START_5’UTR.F and START_Int.R1 , Table S 2), and sequencing was done using the primers START_3F and START_Int.R2 (Table S 2).
Growth inhibition assays. Synchronised ring-stage parasites (0.3-0.6% parasitemia, 2% haematocrit) were grown for 72 h in a serial-dilution of the compound under […]
and compound 4. Note that M-833 was first purchased from MolPort (MolPort -002-267-916) then made in-house at WEHI: the differences observed in EC50s across experiments are attributed to the different batches of M -833. For some experiments, 0, 0.25 or 2.5 mM of glucosamine (GlcN) was also added. Experiments were set up in technical duplicates or triplicates. Following a freeze -thaw cycle, lactate dehydrogenase (LDH) activity was assessed as an indicator of parasite growt h 5. 30 μL of parasite culture was incubated for 30 min in the dark with 75 μL Malstat mixture (0.1 M Tris pH 9.0, 20 g/L lactic acid, pH 7.5, 0.2% Triton-X100, 0.5 g/L acetylpyridine adenine dinucleotide (APAD, Sigma), 200 μg/mL nitroblue tetrazolium (NBT; Sigma), 1 μg/mL phenozine ethosulfate (PES; Sigma)). Absorbance was then measured at 650 nm, transformed using the formula below, plotted against the logarithm of the concentrations, and a non-linear regression (log(inhibitor) vs. response, variable slope) was calculated using GraphPad Prism to assess the half-inhibitory […]
Growth inhibition % = (1 − average(sample)− average(uRBC)) ∗ 100 […]
The DMSO samples were also used to assess growth of parasite in the presence of 0.25 and 2.5 mM GlcN (normalised by DMSO in 0 mM GlcN).
Egress, invasion & recovery assay. To measure egress, invasion and follow up recovery in the presence of different compounds, we adapted the method developed in6, using Hyp1-Nluc parasites7. These parasites episomally express the exported PEXEL protein Hyp1 (PF3D7_0113300) tagged with a NanoLuc luciferase (NLuc) and were selected with 2.5 nM WR99210 (Jacobus). Highly synchronised schizonts were […]

Which “Normalised to DMSO” value (M-833 0.0390625 uM, Pop D-C6 replicate 1) does the source give for Cc1cc(Cl)c(S(=O)(=O)N2CCCC2)cc1OCC(=O)NC1CCCCC1 [M-833] here?
Its value is 106.597.

And the “Normalised to DMSO” value (M-833 0.0390625 uM, Pop D-C6 replicate 3)?
The value was 109.19.

What about the “Normalised to DMSO” value (M-833 0.078125 uM, Pop D-C6 replicate 1) of the same compound?
The value was 104.398.

What about the “Normalised to DMSO” value (M-833 0.078125 uM, Pop D-C6 replicate 3) of the same compound?
Its value is 106.818.

And the “Normalised to DMSO” value (M-833 0.15625 uM, Pop D-C6 replicate 1)?
Its value is 106.528.

What about the “Normalised to DMSO” value (M-833 0.15625 uM, Pop D-C6 replicate 3) of the same compound?
The value was 112.747.

And the “Normalised to DMSO” value (M-833 0.3125 uM, Pop D-C6 replicate 1)?
Its value is 101.389.

And the “Normalised to DMSO” value (M-833 0.3125 uM, Pop D-C6 replicate 3)?
Its value is 96.5909.

What about the “Normalised to DMSO” value (M-833 0.625 uM, Pop D-C6 replicate 1) of the same compound?
The value was 99.6991.

And the “Normalised to DMSO” value (M-833 0.625 uM, Pop D-C6 replicate 3)?
Its value is 97.6285.

What about the “Normalised to DMSO” value (M-833 1.25 uM, Pop D-C6 replicate 1) of the same compound?
The value was 88.1713.

What about the “Normalised to DMSO” value (M-833 1.25 uM, Pop D-C6 replicate 3) of the same compound?
The value was 89.9209.

What about the “Normalised to DMSO” value (M-833 2.5 uM, Pop D-C6 replicate 1) of the same compound?
The value was 68.7963.

What about the “Normalised to DMSO” value (M-833 2.5 uM, Pop D-C6 replicate 3) of the same compound?
The value was 69.4664.

What about the “Normalised to DMSO” value (M-833 5 uM, Pop D-C6 replicate 1) of the same compound?
The value was 41.5972.

What about the “Normalised to DMSO” value (M-833 5 uM, Pop D-C6 replicate 3) of the same compound?
Its value is 40.2668.

What about the “Normalised to DMSO” value (M-833 10 uM, Pop D-C6 replicate 1) of the same compound?
Its value is 22.7778.

And the “Normalised to DMSO” value (M-833 10 uM, Pop D-C6 replicate 3)?
The value was 32.2628.

What about the inhibition at 0.0390625 µM (Plasmodium falciparum, M-833 0.0390625 uM, Pop D-C6 replicate 1) of the same compound?
The inhibition at 0.0390625 µM was -6.6%.

And the inhibition at 0.0390625 µM (Plasmodium falciparum, M-833 0.0390625 uM, Pop D-C6 replicate 3)?
Its inhibition at 0.0390625 µM is -9.19%.

What about the inhibition at 0.078125 µM (Plasmodium falciparum, M-833 0.078125 uM, Pop D-C6 replicate 1) of the same compound?
The inhibition at 0.078125 µM was -4.4%.

What about the inhibition at 0.078125 µM (Plasmodium falciparum, M-833 0.078125 uM, Pop D-C6 replicate 3) of the same compound?
Its inhibition at 0.078125 µM is -6.82%.

What about the inhibition at 0.15625 µM (Plasmodium falciparum, M-833 0.15625 uM, Pop D-C6 replicate 1) of the same compound?
The inhibition at 0.15625 µM was -6.53%.

And the inhibition at 0.15625 µM (Plasmodium falciparum, M-833 0.15625 uM, Pop D-C6 replicate 3)?
Its inhibition at 0.15625 µM is -12.7%.

And the inhibition at 0.3125 µM (Plasmodium falciparum, M-833 0.3125 uM, Pop D-C6 replicate 1)?
The inhibition at 0.3125 µM was -1.39%.

And the inhibition at 0.3125 µM (Plasmodium falciparum, M-833 0.3125 uM, Pop D-C6 replicate 3)?
Its inhibition at 0.3125 µM is 3.41%.

What about the inhibition at 0.625 µM (Plasmodium falciparum, M-833 0.625 uM, Pop D-C6 replicate 1) of the same compound?
The inhibition at 0.625 µM was 0.301%.

And the inhibition at 0.625 µM (Plasmodium falciparum, M-833 0.625 uM, Pop D-C6 replicate 3)?
Its inhibition at 0.625 µM is 2.37%.

What about the inhibition at 1.25 µM (Plasmodium falciparum, M-833 1.25 uM, Pop D-C6 replicate 1) of the same compound?
The inhibition at 1.25 µM was 11.8%.

What about the inhibition at 1.25 µM (Plasmodium falciparum, M-833 1.25 uM, Pop D-C6 replicate 3) of the same compound?
The inhibition at 1.25 µM was 10.1%.

And the inhibition at 2.5 µM (Plasmodium falciparum, M-833 2.5 uM, Pop D-C6 replicate 1)?
The inhibition at 2.5 µM was 31.2%.

What about the inhibition at 2.5 µM (Plasmodium falciparum, M-833 2.5 uM, Pop D-C6 replicate 3) of the same compound?
Its inhibition at 2.5 µM is 30.5%.

What about the inhibition at 5 µM (Plasmodium falciparum, M-833 5 uM, Pop D-C6 replicate 1) of the same compound?
The inhibition at 5 µM was 58.4%.

What about the inhibition at 5 µM (Plasmodium falciparum, M-833 5 uM, Pop D-C6 replicate 3) of the same compound?
Its inhibition at 5 µM is 59.7%.

And the inhibition at 10 µM (Plasmodium falciparum, M-833 10 uM, Pop D-C6 replicate 1)?
Its inhibition at 10 µM is 77.2%.

And the inhibition at 10 µM (Plasmodium falciparum, M-833 10 uM, Pop D-C6 replicate 3)?
The inhibition at 10 µM was 67.7%.

And the inhibition at 0.0390625 µM (Plasmodium falciparum, Pop D-C6 replicate 1, M-833 0.0390625 uM)?
Its inhibition at 0.0390625 µM is -0.105%.

And the inhibition at 0.078125 µM (Plasmodium falciparum, Pop D-C6 replicate 1, M-833 0.078125 uM)?
Its inhibition at 0.078125 µM is -0.157%.

What about the inhibition at 0.15625 µM (Plasmodium falciparum, Pop D-C6 replicate 1, M-833 0.15625 uM) of the same compound?
Its inhibition at 0.15625 µM is 1.36%.

What about the inhibition at 0.3125 µM (Plasmodium falciparum, Pop D-C6 replicate 1, M-833 0.3125 uM) of the same compound?
Its inhibition at 0.3125 µM is 4.07%.

And the inhibition at 0.625 µM (Plasmodium falciparum, Pop D-C6 replicate 1, M-833 0.625 uM)?
Its inhibition at 0.625 µM is 7.36%.

What about the inhibition at 1.25 µM (Plasmodium falciparum, Pop D-C6 replicate 1, M-833 1.25 uM) of the same compound?
The inhibition at 1.25 µM was 9.35%.

And the inhibition at 2.5 µM (Plasmodium falciparum, Pop D-C6 replicate 1, M-833 2.5 uM)?
Its inhibition at 2.5 µM is 19.4%.

What about the inhibition at 5 µM (Plasmodium falciparum, Pop D-C6 replicate 1, M-833 5 uM) of the same compound?
Its inhibition at 5 µM is 34.9%.

What about the inhibition at 10 µM (Plasmodium falciparum, Pop D-C6 replicate 1, M-833 10 uM) of the same compound?
The inhibition at 10 µM was 62%.

What about the EC50 (Plasmodium falciparum, read-out: EC50 (95% confidence interval)) of the same compound?
Its EC50 is 4.19 µM.

What about the “Normalised to DMSO” value (Pop D-C6 replicate 1, M-833 0.0390625 uM) of the same compound?
Its value is 100.105.

And the “Normalised to DMSO” value (Pop D-C6 replicate 1, M-833 0.078125 uM)?
Its value is 100.157.

What about the “Normalised to DMSO” value (Pop D-C6 replicate 1, M-833 0.15625 uM) of the same compound?
The value was 98.6386.

What about the “Normalised to DMSO” value (Pop D-C6 replicate 1, M-833 0.3125 uM) of the same compound?
The value was 95.9333.

What about the “Normalised to DMSO” value (Pop D-C6 replicate 1, M-833 0.625 uM) of the same compound?
Its value is 92.6433.

What about the “Normalised to DMSO” value (Pop D-C6 replicate 1, M-833 1.25 uM) of the same compound?
Its value is 90.6536.

What about the “Normalised to DMSO” value (Pop D-C6 replicate 1, M-833 2.5 uM) of the same compound?
The value was 80.5829.

What about the “Normalised to DMSO” value (Pop D-C6 replicate 1, M-833 5 uM) of the same compound?
Its value is 65.0842.

And the “Normalised to DMSO” value (Pop D-C6 replicate 1, M-833 10 uM)?
The value was 37.9963.
